Patent US12516027B2, “Lappaconitine derivative and use thereof” (priority 2020, dated 2026)

Key:
[1] = system: ovariectomized (OVX) mice; assay: Animal model of osteoporosis, ovariectomized (OVX) mice; format: in vivo
From the text: An ability of QG3030 to treat osteoporosis was confirmed in an animal model of ovariectomized (OVX) mice commonly used as an animal model of osteoporosis.
As the positive controls, parathyroid hormone (PTH)-based Forteo (Eli Lilly) used as an osteoporosis therapeutic agent through an osteogenesis-promoting mechanism, and alendronate-based Fosamax (Merck) serving as a bone resorption inhibitor were subcutaneously administered. As the negative control, water (H2O) was orally administered, and QG3030 was orally administered at a concentration of 5 or 30 mg/kg (FIG. 9A). After the drug was administered daily for 10 weeks, the bone mineral density (BMD) was measured.
In Table 2, BMD represents bone mineral density, TV represents total volume, BV represents bone volume, Tb.Th represents trabecular thickness, and Tb.N represents trabecular number.

MSCs = assay: Osteoblast differentiation of MSCs with kinase inhibitor combination (Alizarin Red); format: cell-based, human; settings: QG3030 1 μM + kinase inhibitor 1 μM, 3 weeks, compared to QG3030-alone group
Procedure: To further study the mechanism by which QG3030 differentiates MSCs into osteoblasts, an experiment was performed using a kinase inhibitor.
After MSCs were cultured, the MSCs were simultaneously treated with a kinase inhibitor (1 μM) and QG3030 (1 μM). The next day, the medium was exchanged, and the MSCs were simultaneously treated again with the kinase inhibitor and QG3030. This procedure was repeated for 3 weeks, and the MSCs were then stained with Alizarin Red.

ERK [2] = assay: Level of phosphorylated ERK (pERK) in MSCs over time; format: cell-based, human
Procedure: Accordingly, the level of the phosphorylated ERK according to time elapsed after MSCs were treated with QG3030 was determined.
Also, to determine whether QG3030 induces ERK phosphorylation for a long period, MSCs were treated with various concentrations (0.001, 0.01, and 0.1 μM) of QG3030, and the level of phosphorylated ERK (pERK) was checked after 7 days and 14 days.

BMP-2 = assay: Change in expression of BMP-2 in MSCs (antibody staining, fluorescence microscope); format: cell-based, human; settings: 0.001 μM, once a day for 7 and 14 days; increased with increasing concentration
From the text: (§1) Runt-related transcription factor 2 (RUNX2; core-binding factor alpha, Cbfa1) is the most important transcriptional regulatory factor for osteogenesis, and is known to be involved in osteoblast differentiation, matrix generation, and mineralization during osteogenesis (Bruderer M, et al., Eur Cell Mater. 2014). Also, RUNX2 itself may be regulated by a bone morphogenetic protein (BMP), which is a type of cytokine (Sun J, et al., Mol Med Rep. 2015). Accordingly, it was confirmed whether QG3030 promotes the expression of osteogenesis-related specific factors to induce osteogenesis.
(§2) MSCs were seeded in a 24-well plate at a concentration of 3×10^4 cells/well, and cultured for 24 hours. From the next day, the MSCs were treated with different concentrations (0.001 μM, 0.01 μM, and 0.1 μM) of QG3030 once a day for 7 days and 14 days. After the experiment was completed, the MSCs were stained with RUNX2 and BMP-2 antibodies, and observed using a fluorescence microscope.

Sprague Dawley (SD) rat = assay: Animal model of bone fracture, ilium bone defect; format: in vivo
Procedure: The ilium of a Sprague Dawley (SD) rat was subjected to drilling with a diameter of 2 mm to induce a bone defect, and QG3030 (6, 30, and 150 μg/10 μL) mixed with an excipient (collagen sponge, CollaCote®) was implanted into a bone defect site to evaluate an osteoanagenic effect (FIG. 11).
To statistically quantify the osteoanagenic capacity of QG3030, a degree of osteogenesis was realized with a 3-D image, and a region of interest (ROI) was set to analyze parameters such as bone volume/total volume (BV/TV; %), trabecular thickness (Tb.Th; mm), trabecular number (Tb.N; 1/mm), and trabecular separation (Tb.Sp; mm).

ERK [3] = assay: Phosphorylated ERK in MSCs with QG3030 and ERK inhibitor PD98059; format: cell-based, human
Procedure: (§3) ERK may induce the phosphorylation of RUNX2 to increase transcriptional activity and may be involved in stability to increase an amount of RUNX2 protein (Greenblatt et al., MB, Annu Rev Cell Dev Biol. 2013). Therefore, an increase in ERK phosphorylation by QG3030 may induce RUNX2 expression so that QG3030 can be involved in the differentiation of MSCs into osteoblasts. To verify this, an expression level of RUNX2 was determined after MSCs were treated with a combination of QG3030 (0.1 μM) and the ERK inhibitor PD98059 (50 μM).

RUNX2 [4] = assay: RUNX2 expression in MSCs with QG3030 and ERK inhibitor PD98059; format: cell-based, human; settings: same at 24 hours
Procedure: as §3

RUNX2 [5] = assay: Change in expression of RUNX2 in MSCs (antibody staining, fluorescence microscope); format: cell-based, human; settings: 0.001 μM, once a day for 7 and 14 days; increased with increasing concentration
From the text: as §1, §2

human MSCs = assay: Osteocytic differentiation potential in MSCs (Alizarin Red and Von Kossa staining); format: cell-based; settings: 0.1 μM, cultured for 3 weeks, like OIM positive control
Procedure: Osteoblasts involved in the osteogenesis are formed by differentiating mesenchymal stem cells (MSCs) using external stimuli and transcription factors involved in various signaling pathways (Garg et al., Orthop Surg. 2017). Accordingly, an experiment was performed to check whether QG3030 was able to induce the differentiation of human MSCs into osteoblasts.
MSCs from normal humans were purchased from the American Type Culture Collection (ATCC, U.S.A), and cultured in an MSC-specific culture medium (Gibco). The cultured cells were digested with trypsin, centrifuged, and then seeded in a 24-well plate at a concentration of 3×10^4 cells/well. The next day, the MSC culture medium was exchanged with a DMEM (DMEM/10% FBS/penicillin/streptomycin) as an experimental medium, and the cells were treated with QG3030 alone (0.1 μM) or OIM (osteogenesis-inducing medium; StemPro Osteogenesis Differentiation Kit, ThermoFisher Scientific Inc.) as the positive control. Thereafter, the cell culture medium was exchanged with a fresh DMEM every day, treated with QG3030 or OIM, and then cultured for 3 weeks. After the culture was completed, the cells were stained with Alizarin Red for detection of calcium and Von Kossa for detection of mineral production.

osteocalcin = assay: Change in expression of osteocalcin in MSCs (antibody staining, fluorescence microscope); format: cell-based, human; settings: 0.001 μM, within 7 days
Procedure: Osteocalcin is expressed only in osteoblasts (Lee et al., Cell 2007), and is used as a biomarker useful for osteogenesis (Bharadwaj et al., Osteoporosis International., 2009).
An experiment was performed in the same manner as described in Experimental Example 1-2, and MSCs were then stained with an osteocalcin antibody, and observed using a fluorescence microscope.

ERK, Akt, WNK1 = assay: Phosphokinase antibody array in MSCs; format: cell-based, human; settings: 1 μM, 24 hours, compared to control DMSO
Procedure: To study a mechanism by which QG3030 differentiates MSCs into osteoblasts, related signaling was investigated.
MSCs cultured in an experimental DMEM were treated with QG3030 (1 μM) or the control compound (DMSO), and cultured for 24 hours. The cells were recovered, and an experiment was then performed according to a method specified in a phosphokinase antibody array kit (R&D Systems) containing antibodies that specifically recognize phosphorylated forms of 43 kinases. Then, samples were analyzed using an ImageJ (NIH, USA) program.

[6] = OVX mice, positive control, subcutaneous, daily for 10 weeks
[7] = implanted in collagen sponge at bone defect site, QG3030 low, medium and high, BMP2 1 ug/10 uL
[8] = OVX mice, 5 mg/kg oral, daily for 10 weeks
[9] = OVX mice, 30 mg/kg oral, daily for 10 weeks
[10] = OVX mice, 5 or 30 mg/kg oral, daily for 10 weeks

NCCCC(O)(P(=O)(O)O)P(=O)(O)O [Fosamax, reference compound]
BMD [1, 6]: 0.2135 g/mL
BV [1, 6]: 1.017 mm^3
BV/TV [1, 6]: 6.521%
TV [1, 6]: 15.51 mm^3

CCN1C[C@]2(O)CC[C@H](OC)C34C1C(C[C@@H]32)[C@]1(O)C[C@H](OC)[C@@H]2C(=O)C(=O)[C@H]4[C@@H]21 [QG3030, (2aR,2a1S,3S,4aS,8S,11S,11bS,12S)-6-ethyl-4a,8-dihydroxy-3,11-dimethoxy-tetradecahydro-8,11a,5-(epiethane[1,1,2]triyl)cyclopenta[7,1]indeno[5,4-b]azocin-1,2-dione]
osteoblast differentiation ability of QG3030 (Alizarin Red) in combination with inhibitor of ERK, P38 or Akt (MSCs): inhibited
level of phosphorylated ERK (pERK) (ERK [2]; 0.001, 0.01 and 0.1 μM, after 7 days and 14 days): significantly increased
level of phosphorylated ERK (pERK) (ERK [2]; after 24 hours after treatment): increased
level of phosphorylated ERK (pERK) compared with positive control (OIM) (ERK [2]; low concentration, 7 days, lasted until 14 days): greater than that of the positive control
level of phosphorylated ERK (pERK) (ERK [2]; within 30 minutes after treatment): significantly increased
expression of BMP-2 (BMP-2): strongly induced the expression
tissue staining markers (H&E, collagen, type I collagen, osteocalcin) at bone defect sites (Sprague Dawley (SD) rat; QG3030 low, medium and high concentrations, effect similar to BMP2): markers were expressed
bone quality by Tb.N and Tb.Sp (other than Tb.Th) compared to DMSO-treated group (Sprague Dawley (SD) rat; [7]): high-quality bone tissue was statistically significantly formed
bone volume/total volume (BV/TV) compared to negative control treated with DMSO (Sprague Dawley (SD) rat; [7]): increased to a similar level
quality of generated bone compared to BMP2 (Sprague Dawley (SD) rat; no statistical significance): better quality of bone compared to BMP2
phosphorylation level of ERK (ERK [3]; QG3030 0.1 μM alone): increased
expression of RUNX2 (RUNX2 [4]; QG3030 0.1 μM alone, within 12 hours): significantly increased
expression of RUNX2 (RUNX2 [5]): strongly induced the expression
BMD [1, 8]: 0.2136 g/mL
BV [1, 8]: 1.107 mm^3
BV/TV [1, 8]: 6.713%
TV [1, 8]: 16.57 mm^3
Tb. N [1, 8]: 0.9472 1/mm
Tb. Th [1, 8]: 0.07081 mm
BMD [1, 9]: 0.2301 g/mL
BV [1, 9]: 1.156 mm^3
BV/TV [1, 9]: 7.731%
TV [1, 9]: 14.92 mm^3
Tb. N [1, 9]: 1.044 1/mm
Tb. Th [1, 9]: 0.07492 mm
bone mineral density compared to the negative control [1, 10]: significantly increased
effect on bone mineral density compared with Forteo [1, 10]: significantly superior to that of Forteo
expression of RUNX2 in the femurs (tissue staining) ([1]; ovariectomized mice): significantly increased
osteogenesis in the femurs (tissue staining) ([1]; ovariectomized mice): induced osteogenesis
calcium (Alizarin Red staining) (human MSCs): induced calcium and mineral production
mineral production (Von Kossa staining) (human MSCs): induced calcium and mineral production
expression of osteocalcin (osteocalcin): strongly induced the expression of osteocalcin
phosphorylation of signaling molecules such as ERK, Akt, WNK1 (ERK, Akt, WNK1): strongly increased the phosphorylation

COc1cccc(-c2cc(=O)c3ccccc3o2)c1N [PD98059, reference compound]
increase in the phosphorylation level of ERK by QG3030 (ERK [3]; combination of QG3030 0.1 μM and PD98059 50 μM): inhibited
expression of RUNX2 (RUNX2 [4]; combination of QG3030 0.1 μM and PD98059 50 μM, 12 hours): significantly decreased

CC[C@H](C)[C@H](NC(=O)[C@H](CCC(=O)O)NC(=O)[C@H](CO)NC(=O)[C@@H](NC(=O)[C@@H](N)CO)C(C)C)C(=O)N[C@@H](CCC(N)=O)C(=O)N[C@@H](CC(C)C)C(=O)N[C@@H](CCSC)C(=O)N[C@@H](Cc1cnc[nH]1)C(=O)N[C@@H](CC(N)=O)C(=O)N[C@@H](CC(C)C)C(=O)NCC(=O)N[C@@H](CCCCN)C(=O)N[C@@H](Cc1cnc[nH]1)C(=O)N[C@@H](CC(C)C)C(=O)N[C@@H](CC(N)=O)C(=O)N[C@@H](CO)C(=O)N[C@@H](CCSC)C(=O)N[C@@H](CCC(=O)O)C(=O)N[C@@H](CCCN=C(N)N)C(=O)N[C@H](C(=O)N[C@@H](CCC(=O)O)C(=O)N[C@@H](Cc1c[nH]c2ccccc12)C(=O)N[C@@H](CC(C)C)C(=O)N[C@@H](CCCN=C(N)N)C(=O)N[C@@H](CCCCN)C(=O)N[C@@H](CCCCN)C(=O)N[C@@H](CC(C)C)C(=O)N[C@@H](CCC(N)=O)C(=O)N[C@@H](CC(=O)O)C(=O)N[C@H](C(=O)N[C@@H](Cc1cnc[nH]1)C(=O)N[C@@H](CC(N)=O)C(=O)N[C@@H](Cc1ccccc1)C(=O)O)C(C)C)C(C)C [Forteo, reference compound]
BMD [1, 6]: 0.1997 g/mL
BV [1, 6]: 0.8791 mm^3
BV/TV [1, 6]: 5.735%
TV [1, 6]: 15.43 mm^3
